Article PMC10388327, “Dual Piperidine-Based Histamine H3 and Sigma-1 Receptor Ligands in the Treatment of Nociceptive and Neuropathic Pain” (Journal of Medicinal Chemistry, 2023)
Counter-ions that a name gives are not always drawn.

Legend:
[1] = target: T1, human histamine H1 receptor (hH1R) (Homo sapiens, UniProt P35367); assay: hH1R radioligand binding ([3H]mepyramine); conditions: read-out: hH1R (Ki [nM] x̅ [CI 95%]); HEK293T cells; n = 3, triplicate
T1 construct: SP (signal peptide) (N); FLAG (N); expressed in transfected cells
Procedure: (§1) To check the selectivity profile of our lead structures, radioligand binding studies at other histamine receptor subtypes were carried out. […] Obtained results clearly indicate the high selectivity of the tested derivatives toward human H3R (Table 3).
(§2) Compounds (as oxalate salts) were tested in H3R in vitro binding studies using the methods described previously.[21]−[23] […] Radioligand binding experiments at the H1R, H2R, and H4R were performed as previously described in Rosier et al.[65] and Bartole et al.[66] […] Data represent mean values ± CI from three independent experiments, each performed in triplicate. The normalized competition binding curves were then fitted with a four-parameter logistic fit yielding IC50 values using the Prism 8.4.3 software (GraphPad, San Diego, CA). The Ki values were estimated from the Cheng–Prusoff equation.[69]

[2] = target: T2, human histamine H2 receptor (hH2R) (Homo sapiens, UniProt P25021); assay: hH2R radioligand binding ([3H]UR-DE257); conditions: HEK293T cells; n = 3, triplicate
T2 construct: SP (signal peptide) (N); FLAG (N); expressed in transfected cells
Procedure: as §1, §2

T2 sequence (P25021 whole entry): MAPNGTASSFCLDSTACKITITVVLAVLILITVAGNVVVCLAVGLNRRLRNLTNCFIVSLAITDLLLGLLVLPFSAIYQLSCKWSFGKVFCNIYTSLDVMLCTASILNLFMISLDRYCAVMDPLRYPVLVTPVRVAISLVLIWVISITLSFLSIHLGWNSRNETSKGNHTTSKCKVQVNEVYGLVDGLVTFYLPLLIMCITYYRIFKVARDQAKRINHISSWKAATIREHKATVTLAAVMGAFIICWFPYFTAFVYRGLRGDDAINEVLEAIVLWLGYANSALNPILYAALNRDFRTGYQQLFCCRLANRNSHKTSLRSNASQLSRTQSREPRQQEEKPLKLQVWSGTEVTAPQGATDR
T1 sequence (P35367 whole entry): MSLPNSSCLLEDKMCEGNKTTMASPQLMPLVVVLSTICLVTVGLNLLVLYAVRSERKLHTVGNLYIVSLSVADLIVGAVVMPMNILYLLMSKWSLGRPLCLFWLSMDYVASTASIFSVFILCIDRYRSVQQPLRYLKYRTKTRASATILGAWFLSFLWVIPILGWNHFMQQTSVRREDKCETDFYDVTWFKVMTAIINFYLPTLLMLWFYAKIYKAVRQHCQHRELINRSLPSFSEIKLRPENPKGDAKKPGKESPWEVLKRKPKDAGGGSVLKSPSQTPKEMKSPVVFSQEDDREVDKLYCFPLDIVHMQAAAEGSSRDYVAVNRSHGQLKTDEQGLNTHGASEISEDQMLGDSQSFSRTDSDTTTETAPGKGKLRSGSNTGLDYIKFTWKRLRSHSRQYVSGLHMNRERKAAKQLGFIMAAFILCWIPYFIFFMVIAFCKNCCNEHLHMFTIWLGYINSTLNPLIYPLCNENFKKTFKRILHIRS

In the case of `N#Cc1ccc(-c2ccc(OCCCN3CCC(c4ccncc4)CC3)cc2)cc1` [Compound 12, 4′-(3-(4-(Pyridin-4-yl)piperidin-1-yl)propoxy)-[1,1′-biphenyl]-4-carbonitrile Oxalate], the Ki [1] is reported as 653 nM and the Ki [2] is reported as greater than 10000 nM.
